Results on one molecule are retold here after US20040038958A1, “Topical treatment of skin diseases” (priority 2002, published 2004).

In series [1] the test system is sensitized Brown Norway rats. The conditions noted are these: late phase airway reaction to antigen; Kuss et al., 2002; cited from earlier work.
Series [2] deals with passively sensitized human airways. The conditions noted are these: Schmidt et al., 2000; cited from earlier work.
For series [3], the system named is macrophage inflammatory protein 2. The experiment in a line: MIP-2 in homogenized mouse ears after TDI challenge (ELISA). It counts as in vivo, BALB/c-mice. The method, then: One part of the collected ears was fixed in 4% formaldehyde for histological section and stained with haematoxylin-eosin with respect to dermal thickness and granulocyte accumulation. These parameters were measured in 10 fields at 40 times magnification. The remaining tissue was shock-frozen and stored in liquid nitrogen immediately after sampling. For the determination of biochemical parameters, the mice ears were homogenized under liquid nitrogen. The homogenates were taken in 200 μl RPMI 1640 medium and the protease inhibitor Pefabloc® (1 mmol) was added and the samples were mixed intensively. After centrifugation (10000 g, 10 min, 4° C.), the supernatant was collected and the protein content was determined. The samples were stored at −80° C. until the cytokines were determined. Interleukin (IL) 4, IL-6 and MIP-2 were measured in the samples by ELISA using commercially available kits according to manufacturers instructions.
For orientation: ELISA stands for enzyme-linked immunosorbent assay.

Structures are written as SMILES. “Also recorded” adds a separate entry of the source.

`O=C(Nc1c(Cl)cncc1Cl)C(=O)c1cn(Cc2ccc(F)cc2)c2ccc(O)cc12` [AWD 12-281, N-(3,5-Dichloro-4-pyridinyl)-2-[1-(4-fluoro-benzyl)-5-hydroxy-1 H-indol-3-yl]-2-oxoacetamide]: the “accumulation of eosinophils in bronchoalveolar lavage” value in series [1] is “significantly reduced the accumulation of eosinophils”. Further, the “bronchospasmogenic effect of an allergen” value in series [2] was “significantly reduced the bronchospasmogenic effect of an allergen”. Moreover, the “concentration of MIP-2 in mouse skin” value in series [3] (24 h after TDI challenge, AWD 12-281 3%, rechallenge) is listed as “diminished the increase of the MIP-2 concentration significantly”. Besides, the “concentration of macrophage inflammatory protein 2 in homogenized mouse ears” value in series [3] (24 h after TDI challenge, topical 2 h before challenge, AWD 12-281 1%, cilomilast 3%, diflorasone 0.05%) is “reduced the increase slightly; also recorded: reduced this increase slightly”. For the same molecule, in series [3] (AWD 12-281 3%, cilomilast 3%, diflorasone 0.05%, 24 h after TDI challenge), the “MIP-2, mean inhibition (%) of the TDI induced synthesis” value is on record as 75%. This molecule also gave an MIP-2 in series [3] (AWD 12-281 3%, homogenized mouse ears 24 h after TDI challenge (rechallenge), vehicle control 286 ± 39, mean ± s.e.) of 72 ± 8 pg/400 µg protein.
